# US10973810B2, “Methods for the treatment of neurological disorders” (Yumanity Therapeutics, Inc., priority 2017, dated 2021)
# How the values were obtained:
# yeast OLE1 = target: T1, yeast OLE1 (Saccharomyces cerevisiae, UniProt P21147, L450T/T449L); assay: Growth of yeast surviving solely on yeast OLE1; type: cell-based; settings: 24 h
# T1 construct: expressed in transfected cells; host or cells: S. cerevisiae ole1Δ strain (W303 pdr1Δ pdr3Δ background), plasmid pRS316 with TDH3 promoter and CYC1 terminator
# T1 sequence (P21147 whole entry T449L/L450T): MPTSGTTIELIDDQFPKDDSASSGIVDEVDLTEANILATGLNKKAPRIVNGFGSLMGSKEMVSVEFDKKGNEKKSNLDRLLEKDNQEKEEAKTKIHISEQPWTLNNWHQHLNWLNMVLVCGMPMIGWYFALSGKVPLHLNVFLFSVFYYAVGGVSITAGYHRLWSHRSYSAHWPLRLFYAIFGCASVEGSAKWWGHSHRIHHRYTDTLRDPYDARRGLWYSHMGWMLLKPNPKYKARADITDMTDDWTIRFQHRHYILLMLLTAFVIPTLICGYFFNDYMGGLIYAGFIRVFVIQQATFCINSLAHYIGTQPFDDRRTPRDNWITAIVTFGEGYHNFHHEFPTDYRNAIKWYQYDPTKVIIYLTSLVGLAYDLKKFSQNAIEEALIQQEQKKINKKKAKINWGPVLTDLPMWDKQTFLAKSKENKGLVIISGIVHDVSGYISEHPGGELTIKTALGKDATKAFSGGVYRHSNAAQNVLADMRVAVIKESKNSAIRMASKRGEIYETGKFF
# Source text: To generate yeast strains expressing SCD1 or SCD5 as the sole desaturase, the human SCD1 and SCD5 genes were cloned from cDNAs (Harvard PlasmID database Clone ID HsCD00340237 for SCD1 and HsCD00342695 for SCD5) into yeast plasmid pRS316 (ATCC 77145) between the yeast TDH3 promoter and the CYC1 terminator. The coding sequence of yeast OLE1 was also cloned into this plasmid). These clones were then transformed into the ole1d strain and plated on CSM-Ura media (CSM lacking uracil) with 2% glucose (w/v) and independent colonies were isolated and amplified.
# For experiments using a plasmid-borne copy of Ole1, SCD1, or SCD5 (FIGS. 3B, 6, and 7), media lacking uracil (SX-Ura, where X is glucose, raffinose, or galactose), was used for all steps of the compound profiling protocol to ensure its maintenance throughout the assay.
# After yeast delivery, assay plates were incubated under humidified conditions at 30° C. for 24 to 40 h. ApoE4 rescue experiments were stopped at 24 h, aSyn experiments at 40 h, Ole1 at 24 h, and SCD1/SCD5 at 40 h. The growth of yeast was monitored by reading the OD600 of each well using a microplate reader (Perkin Elmer EnVision™). For model rescue experiments, raw data were processed by background subtracting and calculating a fold-change relative to DMSO control [(EXP-0.035)/(DMSO-0.035)—where 0.035 is the OD600 contributed by an empty well containing 30 μL of media alone]. For growth inhibition of wild-type cells, raw data were processed by background subtracting and converting values to a percent of the nontreated condition for that strain [(EXP-0.035)/(DMSO-0.035)×100%].
# [1] = tested on: alpha-synuclein (A53T) transfected rat cortical neurons; assay: Neurite degeneration assay in transfected rat cortical neurons; type: cell-based
# Protocol: Rat primary cortical neurons cultured in 96-well plates (Greiner Bio-One) were co-transfected with a fluorescence reporter plasmid (encoding mKate2) and empty or alpha-synuclein-A53T overexpression plasmids by lipofection at 5-6 div (days in vitro). LIPOFECTAMINE® 2000 transfection reagent (Thermo Fisher) (0.5 μl/well) was diluted in NEUROBASAL® media (Thermo Fisher) and incubated for 5-10 min. The LIPOFECTAMINE®/NEUROBASAL® mixture was then added dropwise to a plasmid cocktail diluted in NEUROBASAL® media, and incubated for approximately 40 min. During this time, conditioned media on the neurons was replaced with media containing 1× kynurenic Acid (Sigma-Aldrich) in NEUROBASAL® media (NBKY). LIPOFECTAMINE®/DNA complex solutions were subsequently added dropwise to neurons in the NBKY media in the 96-well plate. Lipofection was carried out for 30-40 min in a standard cell culture incubator (37° C., 5% CO2). Neurons were then washed with NEUROBASAL® media, and 50% conditioned/50% fresh NEUROBASAL® media containing B-27 supplement and GlutaMax™ (Thermo Fisher) (NBM) was applied to the cultures.
# Transfected rat cortical neuron cultures were treated with DMSO or CAY10566 compound 4-6 h post-transfection. […] Neurite lengths of transfected neurons were tracked by an RFP reporter, mKate2, and measured by NeuroTrack™ Software Module (Essen Bioscience). […]
smiles,measurement,setting,value
Cc1nnc(-c2ccc(N3CCC(Oc4cc(F)ccc4Cl)CC3)nn2)o1 [CAY10566],growth of yeast strain expressing Ole1 (percent of DMSO-treated condition),yeast OLE1,resistant
same,neurite degeneration at highest concentrations,"[1]; 10 nM and 3 nM, overlapping with control cultures not transfected with alpha-synuclein A53T",complete rescue
same,neurite degeneration,"[1]; titration from 10 nM down to 10 pM, tracked every 6 h for 7 d, relative to DMSO",concentration-dependent decrease in neurite degeneration
